Experiment [1] concerns N. gonorrhoeae strain FA 19. The following applies: for MIC activity against gonococci (in words): N. gonorrhoeae FA19. The procedure: The peptides were dissolved in 0.01 % (v/v) acetic acid and stored at −20°C prior to use. Antibacterial assays were performed as described previously and used N. gonorrhoeae strain FA 19. All assays were performed in triplicate and values are reported as the minimal inhibitory concentration (MIC).

The test system of the next experiment is purified CPS polymers. Briefly: Neutralizing activity against purified CPS polymers (pro-inflammatory capacity of CPS). The experiment is classed as cell-based, Neisseria meningitidis. The following applies: compared with LL-37. The protocol: (§1) Human THP-1 (macrophage-like cells) and murine RAW 264.7 (TLR4-sufficient), 23ScCr (TLR4-deficient) and HEK-TLR2/6/CD14 stably transfected cell lines were stimulated with meningococcal CPS polymers with or without pre-incubation with LL-37 and its analogs (Table 1). CPS polymers were purified from the LPS-deficient serogroup B Neisseria meningitidis lpxA mutant as well as other meningococcal serogroups A, B, C, W135 and Y. Purified CPS samples were freshly dissolved in pyrogen-free sterile H2O at 1 mg/ml stock concentration and vortexed for 2 min. Working CPS concentrations (ranging from 100 µg/ml to 50 ng/ml) were made in duplicate wells using sterile PBS by serial fold dilutions in the 96-well tissue culture plates (Becton Dickinson, Franklin Lakes, NJ) at 50 µl final volumes. Cationic peptides (2, 4 or 8 µg/ml) or PBS equivalent volumes were added to designated wells and pre-incubated for 30 min at 37°C. Freshly grown THP-1 cells and HEK-TLR2/6 transfected cells as well as murine macrophages, each adjusted to 10^6 cell/ml and 250 µl aliquots were dispensed into each well at final 250×10^3 cell density in the designated 96-well plates. The plates were incubated overnight at 37°C with 5% CO2 and humidity. Supernatants from stimulated cells were harvested and stored at −20°C until use.

In experiment [2] the test system is THP-1 cells. Briefly: IL-6 release from THP-1 cells induced with meningococcal CPS pre-incubated with peptide (ELISA). It is filed as cell-based, human. The following applies: THP-1 cells, CPS-lpxA 100 µg to 50 ng/ml with 10 µg/ml synthetic analogs; Figure 3B. The protocol:
as §1, with “Cationic peptides (2, 4 or 8 µg/ml) or PBS equivalent volumes were added to designated wells and pre-incubated for 30 min at 37°C.” left out, “Supernatants from stimulated cells were harvested and stored at −20°C until use.” left out
(§2) The cytokines TNFα, IL-6 and CXCL10 (IP-10), released from THP-1 cells, and IL-8, released from HEK-TLR2 transfected cells stimulated with meningococcal CPS polymers, were quantified by DuoSet ELISA (R&D Systems) as previously described.

The test system of experiment [3] is THP-1 cells. As to the kind of experiment: TNFα release from THP-1 cells induced with meningococcal CPS pre-incubated with peptide (ELISA). The experiment is classed as cell-based, human. The protocol:
as §1, with “Cationic peptides (2, 4 or 8 µg/ml) or PBS equivalent volumes were added to designated wells and pre-incubated for 30 min at 37°C.” left out
as §2

Experiment [4] relates to ScCr (TLR4-deficient) murine macrophages. Briefly: Nitric oxide release from 23ScCr (TLR4-deficient) macrophages induced with meningococcal CPS (Griess method). It is filed as cell-based. The following applies: ScCr cells, 20 µg/ml CPS of serogroups A, B, C, Y, W135 pre-incubated 30 min with 4 µg/ml LL-37 analogs or 20 µg/ml ampicillin or erythromycin; overnight; Figure 6. The procedure:
as §1, with “Freshly grown THP-1 cells and HEK-TLR2/6 transfected cells as well as murine macrophages, each adjusted to 10^6 cell/ml and 250 µl aliquots were dispensed into each well at final 250×10^3 cell density in the designated 96-well plates. The plates were incubated overnight at 37°C with 5% CO2 and humidity. Supernatants from stimulated cells were harvested and stored at −20°C until use.” left out
Freshly grown adherent RAW 246.7 or 23ScCr (TLR4-deficient) macrophages were harvested, washed and re-suspended in Dulbecco's complete media, counted and adjusted to 10^6 cell/ml. […] Nitric oxide release was quantified using the Greiss chemical method as previously described.

In a further experiment the test system is RAW 264.7 macrophages. Briefly: Nitric oxide release from RAW 264.7 macrophages induced with meningococcal CPS (Griess method). The experiment is classed as cell-based, murine. The following applies: RAW 264, serogroup A CPS (laboratory NMA or vaccine grade MAPS 20 µg/ml) pre-incubated with 4 µg/ml analogs; nitrite after 24 h; Figure S1A, S1B. The procedure: as §1
Freshly grown adherent RAW 246.7 or 23ScCr (TLR4-deficient) macrophages were harvested, washed and re-suspended in Dulbecco's complete media, counted and adjusted to 10^6 cell/ml. 250 µl aliquots were then dispensed into each well of a 96-well plate at final 250×10^3 cell density prior to stimulation with purified CPS polymers with or without cationic peptides. The induced RAW 264.7 or 23ScCr macrophages were incubated overnight at 37°C with 5% CO2 and supernatants were harvested and saved. Nitric oxide release was quantified using the Greiss chemical method as previously described.

In another experiment the test system is NFκB. Briefly: Inducible NFκB dual luciferase reporter in HEK-TLR2/6 cells stimulated with CPS-lpxA. The experiment is classed as cell-based, human. The following applies: CPS-lpxA (20 µg/ml) pre-incubated with analogs (4 µg/ml) 30 min, induction 5 h, firefly normalized to Renilla, Figure 7A. The source says:
To determine the signaling pathways induced upon meningococcal CPS recognition, a transcription factors array (Cignal Finder™ 10-Pathway Reporter Arrays, SABiosciences, Fredrick, MD) consisting of 10 dual-luciferase reporters assays were used according to the manufacturer instructions. Each of the 10 reporter assays encodes for an inducible transcription factor responsive firefly luciferase reporter and constitutively expressing Renilla construct in 40∶1 ratio. Briefly, DNA reporter master mixes were prepared in SureFect transfection reagent (SABiosciences) diluted in Opti-MEM media without serum or antibiotics and 25 µl/well were dispensed into 96-well white tissue culture plates. For reverse transfection, freshly grown cells were counted and adjusted to 1×10^6 cells/ml in Opti-MEM without serum or antibiotics. 100 µl of cells (100×10^3 cells/well) were laid over the DNA reporters in 96-well plates and incubated overnight at 37°C with 5% CO2. Transfection media were removed and replaced with 150 µl of fresh D-MEM supplemented with 10% FBS and incubated again overnight at 37°C. Cells were then induced with meningococcal CPS polymers or LOS doses for 5 h and dual-luciferase reporter activity was determined using Dual-Luciferase reporter assay system (Promega Corporation, Madison, WI) following the manufacturer instructions. […]

The results in this text go back to paper PMC2964311, “The Human Host Defense Peptide LL-37 Interacts with Neisseria meningitidis Capsular Polysaccharides and Inhibits Inflammatory Mediators Release” (PLoS ONE, 2010).

≈ marks a conversion by molar mass, not a printed value. Read-outs that look alike come from different tables or passages of the source. Residues, ends and D or L forms follow the SMILES beside them. No end group written: not given here. *: point of attachment. Lauroyl = CCCCCCCCCCCC(=O)*

As for “LLGRFFRRSRRRIGRRFRRIVQRIRRFLRNLVPRTRS [LL-37 R]”, the “MIC activity against gonococci (in words)” value in experiment [1] is recorded as “retained excellent MIC activity”. The MIC in experiment [1] (strain FA 19) came out at 15.6 µg/mL. For the same molecule, the “Neutralizing activity against purified CPS polymers” value (“Neutralizing activity” for short) in the experiment with purified CPS polymers is “did not enhance the neutralizing activity”. FKRIVQRIKDFLRNLV [LL-17-32] returned an MIC in experiment [1] (strain FA 19) of 3.9 µg/mL. As to `CCCCCCCCCCCC(=O)N[C@@H](Cc1ccccc1)C(=O)N[C@@H](CCCCN)C(=O)N[C@@H](CCCNC(=N)N)C(=O)N[C@H](C(=O)N[C@H](C(=O)N[C@@H](CCC(N)=O)C(=O)N[C@@H](CCCNC(=N)N)C(=O)N[C@H](C(=O)N[C@@H](CCCCN)C(=O)N[C@@H](CC(N)=O)C(=O)N[C@@H](Cc1ccccc1)C(=O)N[C@@H](CC(C)C)C(=O)N[C@@H](CCCNC(=N)N)C(=O)N[C@@H](CC(N)=O)C(=O)N[C@@H](CC(C)C)C(=O)N[C@H](C(=O)O)C(C)C)[C@@H](C)CC)C(C)C)[C@@H](C)CC` [C12LL-17-32 D/N] (Lauroyl-FKRIVQRIKNFLRNLV-OH; C-terminus assumed), the “Inhibition of IL-6 release (interaction with CPS polymers)” value with THP-1 cells [2] is listed as “enhanced interaction with meningococcal CPS polymers”. This molecule also returned an MIC in experiment [1] (strain FA 19) of 3.9 µg/mL (≈ 1.75 µM). Further, the “Inhibition of TNFα release (interaction with CPS polymers)” value in the experiment with THP-1 cells [3] (THP-1 cells, CPS-lpxA 100 µg to 50 ng/ml with 10 µg/ml synthetic analogs, Figure 3A) is “enhanced interaction with meningococcal CPS polymers”.

Molecule “LLGDFFDESEEEIGEEFEDIVQDIEDFLDNLVPDTES [LL-37 R/D-K/E]” had an MIC in experiment [1] (strain FA 19) of over 1000 µg/mL. Same read-out and setting: under FKRIVQRIKNFLRNLV [LL-17-32 D/N] stands 3.9 µg/mL. In the case of LLGDFFRKSKEKIGKEF [LL-1-17], the MIC in experiment [1] (strain FA 19) is over 1000 µg/mL. Regarding `CC[C@H]1OC(=O)[C@H](C)[C@@H](O[C@H]2C[C@@](C)(OC)[C@@H](O)[C@H](C)O2)[C@H](C)[C@@H](O[C@@H]2O[C@H](C)C[C@H](N(C)C)[C@H]2O)[C@](C)(O)C[C@@H](C)C(=O)[C@H](C)[C@@H](O)[C@]1(C)O` [erythromycin], the “Nitric oxide release induced by various meningococcal CPS” value in experiment [4] is given as “this inhibition was not observed”. Regarding `CC1(C)S[C@@H]2[C@H](NC(=O)[C@H](N)c3ccccc3)C(=O)N2[C@H]1C(=O)O` [ampicillin], the “Nitric oxide release induced by various meningococcal CPS” value in experiment [4] is “this inhibition was not observed”. Also, the “Inhibition of CPS polymers (nitric oxide release)” value in the experiment on RAW 264.7 macrophages is “this was not seen”. In turn, “LLGDFFDKSKEKIGKEFKDIVQDIKDFLDNLVPDTES [LL-37 R/D]” gave an MIC in experiment [1] (strain FA 19) of 125 µg/mL.

In turn, “LLGDFFRASAEAIGAEFARIVQRIADFLRNLVPRTES [LL-37 K/A]” had an MIC in experiment [1] (strain FA 19) of over 1000 µg/mL. On the same count and under the same terms, for EKIGKEFKRIVQRIKDFLRNLVPRTES [LL-11-37] the value was 7.8 µg/mL. For “LLGDFFRESEEEIGEEFERIVQRIEDFLRNLVPRTES [LL-37 K/E]”, the MIC in experiment [1] (N. gonorrhoeae FA19 (non-encapsulated), assays in triplicate) was over 1000 µg/mL. For the same molecule, the “Neutralizing activity” value in the experiment with purified CPS polymers was “reduced neutralizing activity”. On to Polymyxin B, for which the “CPS induced NFκB induction (luciferase reporter)” value in the experiment with NFκB is “able to inhibit”. The “Inhibition of CPS polymers (nitric oxide release)” value in the experiment with RAW 264.7 macrophages is listed as “inhibited CPS polymers”. Besides, in the experiment on THP-1 cells [3] (THP-1 cells induced with the CPS-lpxA-analog complexes of the NFκB experiment, Figure 7B), the TNFα release result was “decreased TNFα release”. As for “LLGKFFKKSKKKIGKKFKKIVQKIKKFLKNLVPKTKS [LL-37 K]”, in experiment [1], the “MIC activity against gonococci (in words)” value was “retained excellent MIC activity”. Moreover, the MIC in experiment [1] (strain FA 19) is 7.8 µg/mL. Moreover, the “Neutralizing activity” value in the experiment on purified CPS polymers was “did not enhance the neutralizing activity”.
